Data published in US10583206B2, “Radioactive probe for detecting hydrogen sulfide” (KYUNGPOOK NATIONAL UNIVERSITY INDUSTRY-ACADEMIC COOPERATION …, priority 2015, dated 2020).

What was measured:
[1] = Hydrogen sulfide selectivity test: decomplexation by DAT (diallyl trisulphide); type: physicochemical; conditions: DAT = diallyl trisulphide (100 μM); 37° C. for 15 minutes
[2] = Hydrogen sulfide selectivity test: decomplexation by NaHCO3; type: physicochemical; conditions: NaHCO3 (100 μM); 37° C. for 15 minutes
[3] = Hydrogen sulfide selectivity test: decomplexation by Hcys; type: physicochemical; conditions: 100 μM or L-Hcys (10 mM), 37° C. for 15 minutes
[4] = Hydrogen sulfide selectivity test: decomplexation by Kl; type: physicochemical; conditions: 100 μM or KI (1 mM), 37° C. for 15 minutes
[5] = Hydrogen sulfide selectivity test: decomplexation by NaClO4; type: physicochemical; conditions: NaClO4 (100 μM); 37° C. for 15 minutes
Method in brief: (§1)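 About 45 μCi-55 μCi of ^64Cu-labeled complex in water was mixed with an equal volume of competitor solution (Na2S2O5 1 mM, H2O2 […], NaClO4 100 μM, 2-ME 10 mM) and stirred 15 min at 37° C. ^64CuS formation was quantified by radio-TLC scanning.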

[6] = Hydrogen sulfide selectivity test: decomplexation by H2O2; type: physicochemical; conditions: H2O2 (100 µM); 37° C. for 15 minutes
Method in brief: as §1

[7] = Hydrogen sulfide selectivity test: decomplexation by ATB 337; type: physicochemical; conditions: ATB 337 (100 μM); 37° C. for 15 minutes
[8] = Hydrogen sulfide selectivity test: decomplexation by GSH; type: physicochemical; conditions: 100 μM or GSH (10 mM), 37° C. for 15 minutes
[9] = Hydrogen sulfide selectivity test: decomplexation by Na2S2O3; type: physicochemical; conditions: 100 μM or (1 mM), 37° C. for 15 minutes
[10] = Hydrogen sulfide selectivity test: decomplexation by NaN3; type: physicochemical; conditions: NaN3 (100 μM); 37° C. for 15 minutes
[11] = Test of hydrogen sulfide detection sensitivity (% decomplexation with NaHS, radio-TLC); type: physicochemical; conditions: for % decomplexation: 37° C. for 15 minutes
Method in brief: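 ^64Cu-labelled complex (about 45 μCi-55 μCi) mixed with NaHS at various concentrations in triple distilled water, 500 μL total, stirred 15 min at 37° C. Copper sulfide (^64CuS) formation quantified as % decomplexation by radio-TLC scanner.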

[12] = Hydrogen sulfide selectivity test: decomplexation by Cys; type: physicochemical; conditions: 100 μM or L-Cys (1 mM), 37° C. for 15 minutes
[13] = Hydrogen sulfide selectivity test: decomplexation by NaCl; type: physicochemical; conditions: 100 μM or NaCl (10 mm), 37° C. for 15 minutes
[14] = Hydrogen sulfide selectivity test: decomplexation by Na2S2O5; type: physicochemical; conditions: 100 μM or (1 mM), 37° C. for 15 minutes
Method in brief: as §1

[15] = Hydrogen sulfide selectivity test: decomplexation by ME; type: physicochemical; conditions: 2-mercaptoethanol; 100 μM or (2-ME, 10 mM); 37° C. for 15 minutes
Method in brief: as §1

[16] = test system: Pancreatitis model; experiment: Imaging study in pancreatitis model; type: in vivo, Balb/c mouse; conditions: optical images; PET images after excision of tissues
Protocol: Caerulein (50 μg/kg) was intraperitoneally injected into Balb/c mouse seven times at hourly intervals to prepare a pancreatitis model.
Optical images were obtained after injecting each of the ^64Cu-labeled complex compounds of Example 1 and Example 20 into the prepared rat models having pancreatitis, and PET images were obtained after excision of tissues thereof.

[17] = Hydrogen sulfide selectivity test: decomplexation by L-AsA; type: physicochemical; conditions: L-ascorbic acid; 100 μM or (L-AsA, 10 mM); 37° C. for 15 minutes
[18] = test system: Myocardial infarction model; experiment: Imaging study in myocardial infarction model (PET); type: in vivo, Sprague-Dawley rats
Description: (2) Myocardial Infarction Model
A myocardial infarction model was established by using Sprague-Dawley rats (12-week-old or older, about 250 g). 2 days later after induction of myocardial infarction by occlusion of the coronary arteries in the heart, the rats were used in imaging tests. It is a known fact that myocardial infarction sites show high concentrations of hydrogen sulfide.
It is known that myocardial infarction sites show high concentrations of hydrogen sulfide. Thus, after induction of myocardial infarction by coronary artery occlusion in rats, 50 μCi-900 μCi of the ^64Cu-labeled complex compound was injected via the tails of the rats, and uptake in the myocardial infarction site was examined over time by PET imaging.
36 hours after establishment of the myocardial infarction model, 730 μCi of the radioisotope-labeled complex compound of the present disclosure was injected and nuclear medicine imaging was performed. 2 days later, […] of FDG was injected into the same rat, and then FDG-PET images were obtained. Results are shown in FIGS. 15 to 17 (in the nuclear medicine imaging, the upper image represents a transverse image, and the lower image represents a coronal image).

Row | SMILES | Decomplexation [%] [1] [%] | Decomplexation [%] [2] [%] | Decomplexation [%] [3] [%] | Decomplexation [%] [4] [%] | Decomplexation [%] [5] [%] | Decomplexation [%] [6] [%] | Decomplexation [%] [7] [%] | Decomplexation [%] [8] [%] | Decomplexation [%] [9] [%] | Decomplexation [%] [10] [%] | % decomplexation ([11]; NaHS 0 μM) [%] | % decomplexation ([11]; NaHS 1 μM) [%] | % decomplexation ([11]; NaHS 10 μM) [%] | % decomplexation ([11]; NaHS 15 μM) [%] | % decomplexation ([11]; NaHS 20 μM) [%] | % decomplexation ([11]; NaHS 50 μM) [%] | % decomplexation ([11]; NaHS 100 μM) [%] | Decomplexation [%] [12] [%] | Decomplexation [%] [13] [%] | Decomplexation [%] [14] [%] | other results
1 | C1C[N]2CC[N]3CC[N]4CC[N]1[64Cu]243 [Example 1, ^64Cu-labeled cyclen] | 0.4 ± 0.3 | 0.6 ± 0.3 | 1.4 ± 0.4 | 0.7 ± 0.2 | 0.6 ± 0.2 | 0.5 ± 0.4 | 0.7 ± 0.4 | 0.7 ± 0.0 | 0.4 ± 0.0 | 0.3 ± 0.2 | 0 | 3 | 11 | 63 | 95 | 100 | 100 | 0.5 ± 0.1 | 0.2 ± 0.0 | 0.5 ± 0.2 | sensitivity for hydrogen sulfide (lowest detectable concentration), in words ([11]; comparison among tested complexes): most excellent sensitivity for hydrogen sulfide; Decomplexation [%] [15]: 0.5 ± 0.1%; uptake in the pancreas [16]: high uptakes; Decomplexation [%] [17]: 0.5 ± 0.1%; uptake in the myocardial infarction site ([18]; image taken at 24 hours after injection): high uptake was detected in the myocardial infarction site
2 | C1C[N]2CC[N]3CC[N]1[64Cu]23 [Example 20, ^64Cu-labeled TACN] | 0.7 ± 0.6 | 0.6 ± 0.4 | 1.1 ± 0.5 | 0.4 ± 0.2 | 0.4 ± 0.1 | 0.8 ± 0.3 | 0.7 ± 0.2 | 2.6 ± 0.0 | 0.5 ± 0.0 | 0.4 ± 0.0 | 0 | 0 | 9 | 11 | 13.5 | 24.6 | 54.4 | 0.8 ± 0.3 | 0.5 ± 0.0 | 0.5 ± 0.2 | Decomplexation [%] [15]: 0.4 ± 0.0%; uptake in the pancreas [16]: high uptakes; Decomplexation [%] [17]: 0.8 ± 0.5%; uptake / visualisation of the myocardial infarction site ([18]; PET imaging after injection): the myocardial infarction site was clearly observed
